{"source": "patent US11974990B2", "about": "“TXNIP-TRX complex inhibitors and methods of using the same” (City of Hope, priority 2018, dated 2024)", "key": {"[1]": {"test_system": "TXNIP mRNA", "experiment": "TXNIP mRNA expression (RT-PCR) in murine MIN6 pancreatic beta cells", "assay_type": "cell-based", "details": "25 mM glucose, 72 h (FIG. 11 left)", "description": "FIG. 11. […] MIN6 cells were cultured in 25 mM glucose with C1 at uM concentrations for 72 h. Total RNA was prepared. RT-PCR was performed. Data shown are the mean+SEM from triplicates. Statistical analysis was performed for each column vs. HG DMSO using one-way ANOVA: *<0.0001.\n(§1) RNA extraction and quantitative RT-PCR. RNA was extracted using the Direct-zol™ RNA MiniPrep Plus (Zymo Research). Reverse transcription of RNA samples into cDNA was performed using the GeneAmp RNA PCR Kit (Applied Biosystems), dNTP (from Roche Applied Science), Rnase inhibitor, MULV Reverse Transcriptase and Random hexamers reagent (all from Invitrogen). Diluted cDNA was quantified using real-time PCR performed with Power SYBR Green qPCR MasterMix (Applied Biosystem) and 7500 real-time PCR system (Applied Biosystems). The HPRT1 gene was used as an internal control."}, "[2]": {"test_system": "TNF-α mRNA", "experiment": "TNF-α mRNA expression (RT-PCR) in murine RAW macrophages", "assay_type": "cell-based", "details": "RAW cells, 25 mM glucose, 72 h (FIG. 10B)", "description": "FIGS. 10A-10B. FIG. 10A. […] RAW cells were cultured in 25 mM glucose with C1 (uM) for 72 h. Total RNA was prepared. RT-PCR was performed. Data shown are the mean+SEM from triplicates. Statistical analysis was performed for each column vs. high glucose (HG) DMSO using one-way ANOVA: *<0.0001. FIG. 10B. […] RAW cells were cultured in 25 mM glucose with C1 (uM) for 72 hours. Total RNA was prepared. RT-PCR was performed. Data shown are the mean+SEM from triplicates. Statistical analysis was performed for each column vs. HG DMSO using one-way ANOVA: *<0.0001.\nas §1"}, "[3]": {"test_system": "TNF-α mRNA", "experiment": "TNF-α mRNA expression (RT-PCR) in human 1.1B4 pancreatic β cells", "assay_type": "cell-based", "details": "1.1B4 β cells, 25 mM glucose, 72 h (FIG. 12 right)", "description": "(§2) FIG. 12. […] Human 1.1B4 β cells were cultured in 25 mM glucose with C1 (uM) for 72 h. Total RNA was prepared. RT-PCR was performed. Data shown are the mean+SEM from triplicates. Statistical analysis was performed for each column vs. HG DMSO using one-way ANOVA: *<0.0001.\nas §1"}, "[4]": {"test_system": "TXNIP mRNA", "experiment": "TXNIP mRNA expression (RT-PCR) in human 1.1B4 pancreatic β cells", "assay_type": "cell-based", "details": "1.1B4 β cells, 25 mM glucose, 72 h (FIG. 12 left)", "description": "as §2, §1"}, "[5]": {"test_system": "TNF-α mRNA", "experiment": "TNF-α mRNA expression (RT-PCR) in THP1 cells under high glucose", "assay_type": "cell-based, human", "description": "FIG. 8. […] High glucose induced TNF expression in THP1 cells. This HG induced TNF increase is alleviated by C1 in dose manner (1.25, 2.5 and 5 uM). Results shown are means±SE of triplet real-time PCRs. *:P=0.002 vs. HG only, by t tests; **:P=0.001 vs. HG only, by t tests.\nFIGS. 9A-9B. FIG. 9A. […] THP1 cells were cultured in 25 mM glucose with the indicated concentrations of C1 for 72 h. Cell were collected for total RNA preparation. RT-PCR were performed and data shown are the mean+SEM from triplicates. Statistical analysis was performed using one-way ANOVA, *<0.0001. FIG. 9B. […] THP1 cells were cultured in 25 mM glucose and C1 (uM) as indicated for 72 hours and collected for total RNA preparation. RT-PCR was performed. Data shown are the mean+SEM from triplicates. Statistical analysis was performed using one-way ANOVA: *<0.02; **<0.0001.\nRNA extraction and quantitative RT-PCR. RNA was extracted using the Direct-zol™ RNA MiniPrep Plus (Zymo Research). […] Diluted cDNA was quantified using real-time PCR performed with Power SYBR Green qPCR MasterMix (Applied Biosystem) and 7500 real-time PCR system (Applied Biosystems). […]\nRNA extraction and quantitative RT-PCR. […] Diluted cDNA was quantified using real-time PCR performed with Power SYBR Green qPCR MasterMix (Applied Biosystem) and 7500 real-time PCR system (Applied Biosystems). […]"}}, "note": "“Also recorded” adds a separate entry of the source."}
{"smiles": "CC(C)C(C(=O)O)N1C(=O)c2ccncc2C1=O", "note": "(stereo not drawn) [Compound C1, 2-(1,3-dioxo-1,3-dihydro-2H-pyrrolo[3,4-c]pyridin-2-yl)-3-methylbutanoic acid]", "values": [{"measurement": "TXNIP mRNA levels", "setting": "[1]", "result": "decreased TXNIP"}, {"measurement": "TNF-α mRNA expression", "setting": "[2]", "result": "decreased TNF-α mRNA expression; also recorded: inhibited TXNIP and TNF-α mRNA expression"}, {"measurement": "TNF-α mRNA expression", "setting": "[3]", "result": "affects TXNIP and TNF-α mRNA expression; also recorded: decreased TNF-α expression"}, {"measurement": "TXNIP mRNA expression", "setting": "[4]", "result": "affects TXNIP and TNF-α mRNA expression; also recorded: strongly inhibited TXNIP mRNA expression"}, {"measurement": "TNF-α mRNA expression", "setting": "[5]; THP1, 25 mM glucose, concentration range of C1, 72 h (FIG. 9B)", "result": "inhibits TNF-α mRNA expression; also recorded: lower levels of TNF-α mRNA"}, {"measurement": "HG-induced TNF expression", "setting": "[5]; THP1, high glucose, C1 1.25, 2.5 and 5 uM (FIG. 8)", "result": "attenuate high glucose induced expression of inflammatory cytokine molecules"}]}
